Here are results for ten compounds from patent US20100113372A1, “Method For Preparing Kaempferol-3-0-Rutinoside and Composition of Skin External Application Comprising Thereof” (Amorepacific Corporation, priority 2006, published 2010).

In the first test the test system is procollagen. Kind of test: Promoting effect of procollagen generation (procollagen type-1 C-peptide EIA kit). As to conditions: human fibroblasts, serum-free DMEM, 1×10^−4M for 24 hours; untreated group = 100. The format is cell-based. The protocol: The promoting effect of procollagen generation achieved by kaempferol-3-O-rutinoside obtained from Examples 3 and 4 is measured and compared with that achieved by vitamin C. The procollagen is a material inducing collagen generation and is required to generate collagen and prevent aging. Vitamin C is known as an essential component for synthesis of collagen.
Human fibroblasts were inserted in a 96-well microtiter plate containing the DMEM (Dulbecco's Modified Eagle's Media) media with 2.5% fetal bovine serum to a quantity of 5000 cells/well and cultured until the human fibroblasts grow by 90%, then cultured again in the serum-free DMEM media for 24 hours. The kaempferol-3-O-rutinoside of Examples 3 and 4, and vitamin C dissolved in the serum-free DMEM media were treated at a concentration of 1×10^−4M for 24 hours, and the cell culture media was harvested. After 24 hours, the amount of procollagen floating in the culture media was measured using procollagen type-1 C-peptide EIA kit (MK101, Takara, Japan).
In an untreated group, a degree of procollagen generation is 100. A degree of procollagen generation of a group treated with the material as compared to that of the control group is obtained.
As to `CC1OC(OCC2OC(Oc3c(-c4ccc(O)cc4)oc4cc(O)cc(O)c4c3=O)C(O)C(O)C2O)C(O)C(O)C1O` (centres unmarked) [Example 3-1, Kaempferol-3-O-rutinoside], the “Degree of procollagen generation (%)” value is 121%. Turning to `CC1OC(OCC2OC(Oc3c(-c4ccc(O)cc4)oc4cc(O)cc(O)c4c3=O)C(O)C(O)C2O)C(O)C(O)C1O` (centres unmarked) [Example 3-2, Kaempferol-3-O-rutinoside], the “Degree of procollagen generation (%)” value was 118%. The same measure, in the same setting: the result for `CC1OC(OCC2OC(Oc3c(-c4ccc(O)cc4)oc4cc(O)cc(O)c4c3=O)C(O)C(O)C2O)C(O)C(O)C1O` (centres unmarked) [Example 3-3, Kaempferol-3-O-rutinoside] reads 138%; that for `CC1OC(OCC2OC(Oc3c(-c4ccc(O)cc4)oc4cc(O)cc(O)c4c3=O)C(O)C(O)C2O)C(O)C(O)C1O` (centres unmarked) [Example 4-1, Kaempferol-3-O-rutinoside], 145%; that for `CC1OC(OCC2OC(Oc3c(-c4ccc(O)cc4)oc4cc(O)cc(O)c4c3=O)C(O)C(O)C2O)C(O)C(O)C1O` (centres unmarked) [Example 4-2, Kaempferol-3-O-rutinoside], 123%. As for `CC1OC(OCC2OC(Oc3c(-c4ccc(O)cc4)oc4cc(O)cc(O)c4c3=O)C(O)C(O)C2O)C(O)C(O)C1O` (centres unmarked) [Example 4-3, Kaempferol-3-O-rutinoside], the “Degree of procollagen generation (%)” value is listed as 122%. Turning to `O=C1O[C@H]([C@@H](O)CO)C(O)=C1O` [Vitamin C, reference compound], the “Degree of procollagen generation (%)” value was determined as 120%.

Still in this test, the particulars now being: in vitro, human fibroblasts.
For `CC1OC(OCC2OC(Oc3c(-c4ccc(O)cc4)oc4cc(O)cc(O)c4c3=O)C(O)C(O)C2O)C(O)C(O)C1O` (centres unmarked) [kaempferol-3-O-rutinoside], the “Effect on procollagen generation (in words)” value was “promotes the procollagen generation in vitro”.

In the next test the test system is collagenase. Kind of test: Inhibitory effect of collagenase expression (collagenase immunoassay of fibroblast culture media). The format is cell-based. As to conditions: human fibroblasts, serum-free DMEM, 1×10^4M for 24 hours; untreated group = 100. The method, then:
The effect of inhibiting collagenase expression achieved by kaempferol-3-O-rutinoside obtained from Examples 3 and 4 is measured and compared with that achieved by tocopherol and EGCG. Tocopherol and EGCG are anti-oxidation materials that regenerate an epidermal cell of skin and prevent skin aging.
Human fibroblasts were inserted in a 96-well microtiter plate containing the DMEM (Dulbecco's Modified Eagle's Media) media with 2.5% fetal bovine serum to a quantity of 5000 cells/well and cultured until the human fibroblasts grow by 90%, then cultured again in the serum-free DMEM media for 24 hours. The kaempferol-3-O-rutinoside of Examples 3 and 4, tocopherol and EGCG dissolved in the serum-free DMEM media were treated at a concentration of […] for 24 hours, and the cell culture media was harvested.
The degree of collagenase generation of harvested cell culture media was measured using an instrument for measuring collagenase (Amershampharmacia Company). The harvested cell culture media was added in a 96-well plate coated uniformly with first collagenase antibody, and antigen-antibody reaction was conducted for 3 hours in a thermostat.
After 3 hours, second collagen antibody bonded with chromophore was added in the 96-well plate to react for 15 minutes. After 15 minutes, color developing material was inserted at room temperature for 15 minutes to induce color development, then 1M sulfuric acid was added to terminate the reaction (color development). The color of the reaction solution is yellow and the degree of yellow color can differ according to a degree of reaction progression.
Absorbance of the 96-well plate having the yellow color was measured through an absorbency measurement at 405 nm and a degree of synthesis was calculated by the following equation 1. In the calculation, an absorbance of cell culture media untreated with the material was used as a control group. That is, a degree of collagenase expression of an untreated group is 100, and a degree of collagenase expression of a group treated with the material as compared to that of the control group is obtained.
`O=C(O[C@@H]1Cc2c(O)cc(O)cc2O[C@@H]1c1cc(O)c(O)c(O)c1)c1cc(O)c(O)c(O)c1` [EGCG, reference compound]: the “Degree of collagenase expression (%)” value is recorded as 60%. As for `CC1OC(OCC2OC(Oc3c(-c4ccc(O)cc4)oc4cc(O)cc(O)c4c3=O)C(O)C(O)C2O)C(O)C(O)C1O` (centres unmarked) [Example 3-1, Kaempferol-3-O-rutinoside], the “Degree of collagenase expression (%)” value came to 70%. For the compound `CC1OC(OCC2OC(Oc3c(-c4ccc(O)cc4)oc4cc(O)cc(O)c4c3=O)C(O)C(O)C2O)C(O)C(O)C1O` (centres unmarked) [Example 3-2, Kaempferol-3-O-rutinoside], the “Degree of collagenase expression (%)” value is listed as 71%. As to `CC1OC(OCC2OC(Oc3c(-c4ccc(O)cc4)oc4cc(O)cc(O)c4c3=O)C(O)C(O)C2O)C(O)C(O)C1O` (centres unmarked) [Example 3-3, Kaempferol-3-O-rutinoside], the “Degree of collagenase expression (%)” value stood at 63%. Turning to `CC1OC(OCC2OC(Oc3c(-c4ccc(O)cc4)oc4cc(O)cc(O)c4c3=O)C(O)C(O)C2O)C(O)C(O)C1O` (centres unmarked) [Example 4-1, Kaempferol-3-O-rutinoside], the “Degree of collagenase expression (%)” value was 68%. In the case of `CC1OC(OCC2OC(Oc3c(-c4ccc(O)cc4)oc4cc(O)cc(O)c4c3=O)C(O)C(O)C2O)C(O)C(O)C1O` (centres unmarked) [Example 4-2, Kaempferol-3-O-rutinoside], the “Degree of collagenase expression (%)” value stood at 73%. For `CC1OC(OCC2OC(Oc3c(-c4ccc(O)cc4)oc4cc(O)cc(O)c4c3=O)C(O)C(O)C2O)C(O)C(O)C1O` (centres unmarked) [Example 4-3, Kaempferol-3-O-rutinoside], the “Degree of collagenase expression (%)” value turned out to be 70%. As for Tocopherol [reference compound], the “Degree of collagenase expression (%)” value is 75%.

The test is the same for the next values; noted with them: in vitro, human fibroblasts.
`CC1OC(OCC2OC(Oc3c(-c4ccc(O)cc4)oc4cc(O)cc(O)c4c3=O)C(O)C(O)C2O)C(O)C(O)C1O` (centres unmarked) [kaempferol-3-O-rutinoside]: the “Effect on collagenase expression (in words)” value is on record as “inhibits the collagenase expression in vitro”.
